Data taken from patent US11293015B2, “Diels-Alderase and use thereof” (Peking University, priority 2020, dated 2022).

How the values were obtained:
MaDA-2 = assay: Activity test of MaDA-2; type: biochemical, Morus alba; conditions: dienophile 100 μM, Diene 3, 22, 23 or 24 100 μM, SUMO-MaDA-2 54 nM, pH 8.0, 50° C., 5 min
Protocol: Under the catalyzation of MaDA-2, the reaction activity between Dienophile 1 and different dienes 3, 22, 23 and 24 was measured following the protocol as follows: to a […] reaction buffer (20 mm Tris-HCl, pH=8.0), 1 μL of Dienophile 1 (final concentration of 100 μM) and 1 μL Diene 3, 22, 23 or 24 (final concentration of 100 μM) were added, and then 1 μL of SUMO-MaDA-2 (final concentration 54 nM) was added. The reaction mixture was reacted at 50° C. for 5 min, then quenched by adding 200 μL methanol. The reaction solution was analyzed by HPLC under the analysis conditions mentioned above, and the results were shown in FIG. 20. […] However, unlike MaDA, MaDA-2 can recognize Dienophile 5 to generate corresponding natural products or their analogs.

MaDA-1 = assay: Enzymatic activity test for MaDA-1; type: biochemical, Morus alba; conditions: Diene 3 100 μM, Dienophile 1 100 μM, SUMO-MaDA-1 27 nM, pH 8.0, 50° C., 10 min
Protocol: (§1) The activity of MaDA-1 was tested as follows: to a 97 μL reaction buffer (20 mm Tris-HCl, pH=8.0), 1 μL of Diene 3 (final concentration of 100 μM) and 1 […] (final concentration of 100 μM) were added, and then 1 μL of SUMO-MaDA protein (final concentration 27 nM) or SUMO-MaDA-1 (final concentration 27 nM) was added. The reaction mixture was reacted at 50° C. for 10 min, then quenched by adding 200 μL methanol, and centrifuged at 13,000 rpm for 30 min. The supernatant was analyzed by HPLC. In the control group as blank control, no protein was added.

MaDA [1] = assay: Enzymatic activity test, MaDA run alongside MaDA-1; type: biochemical, Morus alba; conditions: Diene 3 100 μM, Dienophile 1 100 μM, SUMO-MaDA 27 nM, pH 8.0, 50° C., 10 min
Protocol: as §1

MaDA [2] = assay: Conversion of dienophile substrates in the enzymatic D-A reaction; type: biochemical, Morus alba
Protocol: In the present Example, the conversion of Dienophiles 1 and 5-9 under enzymatic D-A reaction conditions were also determined. The reaction conditions were as follows:
To 96 μL reaction buffer (20 mM Tris-HCl, pH 8.0) was added 2 μL Diene 3 (final concentration, 200 μM) and 1 μL different chalcones or their derivatives (i.e., Dienophiles 1 and 5-9, final concentration, 100 μM). Then 1 μL MaDA or SUMO-MaDA (final concentration, 540 nM) was added. The resulting mixture was reacted at 50° C. for 5 min. The reactions were terminated by the addition of 200 μl of methanol. The reaction liquid were analyzed using the HPLC analysis condition mentioned above. After three repeated experiments, the conversion of Dienophiles 1, 7, 8, 9, 5 and 6 are determined as 74%, 55%, 13%, 78%, 0%, 71% respectively, as shown in FIG. 12.

[3] = Optimum temperature and pH of MaDA; type: biochemical; conditions: Diene 3 0.1 mM, Dienophile 1 0.1 mM, 0.02 μg MaDA, 5 min, buffers pH 4.0-11.0
Protocol: The effects of different reaction temperatures (25, 30, 35, 40, 45, 50, 55, 60, and 70° C.) on [4+2] cyclization catalyzed by MaDA were investigated using Diene 3 and Dienophile 1 as substrates. The reaction system was as follows: the reaction mixture (100 μL) containing Diene 3 (0.1 mM) and Dienophile 1 (0.1 mM), and 0.02 μg MaDA was reacted for 5 min in Tris HCl buffer at pH 7.5 (the buffer solution was balanced at different temperatures for 15 min in advance). After the reaction, 200 μL ice-cold methanol was added to terminate the reaction, and vortex mixing was carried out. The resulting mixture was centrifuged at 15,000 g for 30 min. The supernatant was analyzed by HPLC. […] The conversion of the substrate was calculated by substituting the peak area of the product into the standard curve to calculate the reduction of the substrate.
The effects of buffer at different pH (pH 4.0-6.0, citric acid-sodium citrate buffer; 6.0-7.0, disodium hydrogen phosphate-sodium dihydrogen phosphate buffer; 7.0-9.0, Tris HCl buffer; 9.0-11.0, sodium carbonate-sodium bicarbonate buffer) on the [4+2] cyclization reaction of MaDA was investigated using Diene 3 and Dienophile 1 as substrates. […] The supernatant was analyzed by HPLC. […] The conversion of the substrate was calculated by substituting the peak area of the product into the standard curve to calculate the reduction of substrate.

MaDA-2, sequence (as listed by the source): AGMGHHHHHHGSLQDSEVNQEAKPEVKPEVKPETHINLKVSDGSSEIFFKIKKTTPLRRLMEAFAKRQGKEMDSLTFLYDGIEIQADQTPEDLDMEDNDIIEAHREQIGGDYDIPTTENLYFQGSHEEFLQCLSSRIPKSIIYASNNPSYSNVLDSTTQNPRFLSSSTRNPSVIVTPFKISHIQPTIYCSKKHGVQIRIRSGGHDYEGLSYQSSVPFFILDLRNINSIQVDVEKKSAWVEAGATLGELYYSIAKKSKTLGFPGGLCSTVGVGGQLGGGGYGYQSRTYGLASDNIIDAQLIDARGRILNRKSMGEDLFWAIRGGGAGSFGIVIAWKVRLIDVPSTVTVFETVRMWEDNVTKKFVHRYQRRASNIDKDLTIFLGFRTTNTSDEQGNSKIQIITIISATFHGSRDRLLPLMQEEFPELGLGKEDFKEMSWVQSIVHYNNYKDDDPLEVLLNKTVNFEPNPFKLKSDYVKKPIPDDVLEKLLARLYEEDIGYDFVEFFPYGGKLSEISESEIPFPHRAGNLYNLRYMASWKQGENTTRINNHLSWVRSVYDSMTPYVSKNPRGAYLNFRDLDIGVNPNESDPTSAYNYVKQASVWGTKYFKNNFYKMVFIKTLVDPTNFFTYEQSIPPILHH

Molecule	MaDA-2 catalysed reaction between dienophile and different dienes (MaDA-2)	consumption of substrate with MaDA-1, chalcomoracin (4) produced (MaDA-1)	consumption of substrate with MaDA, chalcomoracin (4) produced (MaDA [1])	conversion of dienophile (MaDA [2]; Diene 3 200 μM, dienophile 100 μM, MaDA or SUMO-MaDA 540 nM, pH 8.0, 50° C., 5 min, three repeated experiments) [%]	effective recognition of dienophile by MaDA protein (MaDA [2]; same condition as the conversion test (540 nM enzyme, 50° C., 5 min))	optimum pH [3]
morachalcone A [Dienophile 1]	can also catalyze the reaction	almost completely consumed	almost completely consumed	74	effectively recognize	
C=C(C)/C=C/c1c(O)cc(-c2cc3ccc(O)cc3o2)cc1O [Diene 3]		almost completely consumed	almost completely consumed			
MaDA: Diels-Alderase identified from Morus alba, amino acid sequence SEQ ID No.1 (protein) MQYFSFPSSLAKITIFLIFSFVFASSANDTHEAFLECLTTRIPSNSTFTPQSIIYTPDNPSYSTILDSTTQNPRFLSSSTRNPFAIITPLHASHIQAALYCSQKHGEQMRIRSGGHDYEGLSYQSSVPFFILDLRNLSSISIDAKSKSAWVQAGATIGELYYGIAKTSLNLSFPGGVAHTIGVGGQLGGGGYGYSTRKYGLASDNVIDAQLIDARGRILDRKTMGEDLFWAIRGGGAGSFGIVLAWKIRLVNTPSTVTIFEAVRSWENNTTKKFIRRYQRRASKTDKDLTIFVGFRTTSSTDEEGNERISILTIVSATFHGSKDRLLQLVQKEFPDLGLVSEECTEMSWVRSIIHFNLFGDEVPLEVLLNRTLNFEMKAFKLRSDYVQKPIPDDVLEKLLSKLYDEETGEGYIEFFPYGGKMSKISESEIPFPYRAGNLYNLRYMVSWKDDGNITRTNMHLSWIKDAYDYMTPYVSKDPRGAYLNFRDLDIGVNVNESDYDYVAKASVWGTKYFRNNFYRLVDIKTIVDPTNFFKYEQSIPPLPPLHSAM						8.0
